The assay relates to bcl2Mid (DNA, G4) GGGCGCGGGAGGAATTGGGCGGG
Briefly: native PAGE. The note with it: K+ (25 mM K-phosphate, 70 mM KCl); samples pH 7.0; gel in TBE pH 8.0; higher-order assemblies at all equivalents.

These results are taken from article PMC6115404 (2018).

Consider `NCCNCCN.NCCNCCN.NCCNCCN.[Pt+2].[Pt+2].[Pt+2].c1cc(-c2ccc(N(c3ccc(-c4ccncc4)cc3)c3ccc(-c4ccncc4)cc3)cc2)ccn1`, for which the binding entry is recorded as “yes”.
